In brackets after ≈: the same amount, converted by molar mass.
system: MSSA; assay: Test A antibacterial assay, broth microdilution MIC; format: cell-based; details: Staphylococcus aureus, growth read after 24 to 48 hours at OD 600 nm
Protocol: Test A. Antibacterial Assay. Antibacterial activity can be determined as per Clinical and Laboratory Standards Institute (CLSI) guidelines using a broth microdilution assay in which log-phase bacteria are grown at 37° C. in appropriate medium containing two-fold serial dilutions of a compound to yield final concentrations ranging from 256 to 0.06 μg/mL. For determination of minimal inhibitory concentration (MIC) values, bacterial growth is monitored after 24 to 48 hours by measuring optical density at 600 nm.

Row | SMILES | MIC [µg/mL]
1 | CCN(CC)CNC(=O)c1c(F)ccc(OCc2nc3cc(Cl)ccc3o2)c1F [Example 24] | 8 (≈ 18.9 µM)
2 | O=C(NC(c1ccccc1)N1CCOCC1)c1c(F)ccc(OCc2nc3cc(Cl)ccc3s2)c1F (centres unmarked) [Example 28] | 0.25 (≈ 0.472 µM)
3 | CNCNC(=O)c1c(F)ccc(OCc2nc3cc(Cl)ccc3s2)c1F [Example 27] | 0.125 (≈ 0.314 µM)
4 | CN1CCN(C(NC(=O)c2c(F)ccc(OCc3nc4cc(Cl)cnc4s3)c2F)c2ccccc2)CC1 (centres unmarked) [Example 32] | 0.5 (≈ 0.919 µM)
5 | CN1CCN(C(NC(=O)c2c(F)ccc(OCc3nc4cc(Cl)ccc4s3)c2F)c2ccccc2)CC1 (centres unmarked) [Example 38] | 8 (≈ 14.7 µM)
6 | Cc1ccc(CN(C)CNC(=O)c2c(F)ccc(OCc3nc4cc(Cl)cnc4s3)c2F)cc1 [Example 15] | 0.5 (≈ 0.994 µM)
7 | CC1CCN(CNC(=O)c2c(F)ccc(OCc3nc4cc(Cl)cnc4s3)c2F)CC1 [Example 17] | 0.5 (≈ 1.07 µM)
8 | CCN(CC)CNC(=O)c1c(F)ccc(OCc2nc3cc(Cl)cnc3s2)c1F [Example 16] | 0.5 (≈ 1.13 µM)
9 | C#CCN(C)CNC(=O)c1c(F)ccc(OCc2nc3cc(Cl)ccc3s2)c1F [Example 39] | 0.25 (≈ 0.574 µM)
10 | CCN(CC)CNC(=O)c1c(F)ccc(OCc2nc(-c3ccc(C(F)(F)F)cc3)c(Br)o2)c1F [Example 22] | 0.125 (≈ 0.222 µM)
11 | CCN(CC)CNC(=O)c1c(F)ccc(OCc2nc3cc(Cl)ccc3s2)c1F [Example 9] | 0.125 (≈ 0.284 µM)
12 | CCN(CC)CNC(=O)c1c(Cl)ccc(OCc2nc3cc(Cl)ccc3s2)c1F [Example 42] | 2 (≈ 4.38 µM)
13 | Cc1nc(COc2ccc(F)c(C(=O)NCN3CCC(C)CC3)c2F)sc1-c1ccc(C(F)(F)F)cc1 [Example 43] | 2 (≈ 3.71 µM)
14 | Cc1nc(COc2ccc(F)c(C(=O)NCN(C)C)c2F)sc1-c1ccc(C(C)(C)C)cc1 [Example 34] | 0.125 (≈ 0.264 µM)
15 | CN(C)/C=N/C(=O)c1c(F)ccc(O/C(=C/N(C)C)c2nc3cc(Cl)ccc3s2)c1F [Example 45] | 32 (≈ 68.8 µM)
16 | Cc1ccc(CN(C)CNC(=O)c2c(F)ccc(OCc3nc4cc(Cl)ccc4o3)c2F)cc1 [Example 25] | 16 (≈ 32.9 µM)
17 | Cc1csc(COc2ccc(F)c(C(=O)NCN(C)C)c2F)n1 [Example 46] | 8 (≈ 23.4 µM)
18 | Cc1ccc(CN(C)CNC(=O)c2c(F)ccc(OC(C)c3nc(C)c(-c4ccc(C(C)(C)C)cc4)s3)c2F)cc1 (centres unmarked) [Example 20] | 1 (≈ 1.73 µM)
19 | CC(C)(C)NCNC(=O)c1c(F)ccc(OCc2nc3cc(Cl)ccc3s2)c1F [Example 40] | 0.5 (≈ 1.14 µM)
20 | COc1ccc(CN(C)CNC(=O)c2c(F)ccc(OCc3nc4cc(Cl)cnc4s3)c2F)cc1 [Example 11] | 1 (≈ 1.93 µM)
21 | CN(CNC(=O)c1c(F)ccc(OCc2nc3cc(Cl)cnc3s2)c1F)Cc1ccc(C(F)(F)F)cc1 [Example 13] | 1 (≈ 1.8 µM)

system: MSSA (S. aureus); assay: Test E in vivo efficacy, murine septicemia model of staphylococcal infection; details: MSSA-infected mice, i.v. treatment; 24 h monitoring
Protocol: Test E. In Vivo Efficacy in the Mouse Peritonitis or Mouse Septicemia Model.
Assessment of in vivo efficacy was performed using femal Swiss Webster mice (obtained from Taconic Farms, Germantown, Pa.) employing a murine septicemia model of staphylococcal infection. For bioassays examining efficacy against MSSA, each mouse was inoculated intraperitoneally with 500 μl of an inoculum containing 1.0×10^8 CFU per ml of S. aureus. All of the in vivo efficacy studies include a negative control group of infected mice treated intravenously either with vehicle alone (6 mice) or untreated (6 mice), as well as a positive control groups of infected mice treated with 200 ul of […] of vancomycin administered intravenously (4 mice) and a second control group using 2.0 mg/ml of oxacillin (4 mice). After the mice were infected, groups of six mice are treated by tail vein injection with 300 ul of a solution containing 2.0 mg of Example 6 in 10 mM citrate. Mice received four doses Example 6 administered with a 15 minute interval. Control mice are treated with vancomycin qd, oxacillin b.i.d, or vehicle alone. […] Animals are given food and water ad libitum. Survival within each experimental group is monitored over a 24 hout time period. Monitoring of the mice began 4 hours after the start of experiment. All of the effective mice treated with Example 6 survived the infection (5/5, 100% survival). All of the oxacillin-treated (4/4) and vancomycin-treated mice (4/4) survived the infection. All of the vehicle controls died within 12 hours, with 0/6 or 0% survival. Among the infected mice that receive no treatment, only 1/6 survived (16.7% survival).

Row | SMILES | mice surviving the infection / mice
22 | Cc1onc(-c2ccccc2)c1C(=O)N[C@@H]1C(=O)N2[C@@H]1SC(C)(C)[C@@H]2C(=O)O [oxacillin, reference compound] | 4/4
23 | CN[C@H](CC(C)C)C(=O)N[C@H]1C(=O)N[C@@H](CC(N)=O)C(=O)N[C@H]2C(=O)N[C@H]3C(=O)N[C@H](C(=O)N[C@H](C(=O)O)c4cc(O)cc(O)c4-c4cc3ccc4O)[C@H](O)c3ccc(c(Cl)c3)Oc3cc2cc(c3O[C@@H]2O[C@H](CO)[C@@H](O)[C@H](O)[C@H]2O[C@H]2C[C@](C)(N)[C@H](O)[C@H](C)O2)Oc2ccc(cc2Cl)[C@H]1O [vancomycin, reference compound] | 4/4

— patent US9475783B2, “Antimicrobial agents” (Rutgers, the State University of New Jersey, priority 2012, dated 2016)
